Key:
[1] = system: U2OS human osteosarcoma cell line; assay: Nile Red derivative cell staining and imaging, fixed and live cells; assay type: cell-based; conditions: 1 μM; for fluorescence intensity in fixed cells: U2OS fixed with 4% PFA, imaged without washing; for fluorescence intensity in live cells without washing / structures observed in live cells without washing: U2OS live, imaged in staining solution
Experimental: The U2OS human osteosarcoma cell line was cultured in Dulbecco's Modified Eagle Medium (DMEM, Thermo Fisher Scientific, Waltham, Mass.) with 10% fetal bovine serum (FBS, VWR, Radnor, Pa.) and 1% Penicillin/Steptomycin 100× (Thermo Fisher Scientific) at 37° C. in 5% CO2. For live cell imaging studies, Fluorobrite DMEM media (Thermo Fisher Scientific) was used in place of DMEM. For imaging studies, cells were grown in 96-well glass bottom plates (Cellvis, Mountain View, Calif.) for 48 hours, with a final confluence of <80%. Nile Red and its derivatives were prepared at 1-10 mM stock concentration in DMSO and diluted into media or buffer for cell staining and imaging studies.
Cell staining studies were completed on fixed and live U2OS cells using Nile Red and each synthesized Nile Red derivative described as follows. For fixed cell staining, cells were washed once with 1× phosphate buffered saline (PBS), then fixed with 4% paraformaldehyde (PFA) for 20 minutes at room temperature. The PFA was removed and each well was washed three times for 5 mins per wash (3×5 mins) with 1×PBS. The Nile Red fluorophores were diluted into 1×PBS to a final concentration of 1 μM, incubated for 5 minutes with the cells, and images were collected without washing. Live cell staining was completed using two methods. First, cells were washed once with Fluorobrite DMEM. The Nile Red fluorophore solution was prepared in Fluorobrite DMEM by diluting to a final concentration of 1 μM for staining, where cells were stained for 5 minutes. The fluorophore containing media was removed and the cells were fixed for 20 minutes using 4% PFA. Cells were then washed 3×5 mins with Fluorobrite DMEM prior to imaging. Second, cells were washed with Fluorobrite DMEM without FBS once for 5 minutes. Nile Red fluorophore solutions were prepared in Fluorobrite without FBS at 1 μM final concentration for cell staining. The cells were stained with the prepared solution for 5 minutes and imaged in the staining solution. All images were collected at their ideal exposure times to permit visualization of stained intracellular structures.
All ex vivo and cellular fluorescence and white light images were collected using a Zeiss AxioObserver inverted fluorescence microscope (Carl Zeiss, Oberkochen, Germany). All cell images were collected at 40× magnification and all tissue section images were collected at 10× magnification. Fluorescence excitation was completed using a Photofluor II broad band light source (89 North, Burlington, Vt.) filtered with a 545±12.5 nm bandpass excitation filter. Fluorescence images were collected using a 605±35 nm bandpass emission filter and a AxioCam 506 monochromo camera (Zeiss). All Filters were Purchased from Chroma Technologies (Bellows Falls, Vt.).

[2] = Spectroscopic analysis: absorbance, emission and quantum yield of Nile Red derivatives; assay type: physicochemical; conditions: in DMSO; for QY (quantum yield): standard Rhodamine B
Experimental: Tandem liquid chromatography mass spectroscopy (LCMS) analysis (Agilent 1260 LC system with a 6224 time of flight (TOF) MS, Agilent, Santa Clara, Calif.) was performed using a 2.7 micron C18 column (4.6×50 mm, Agilent). High performance liquid chromatography (HPLC) purification (Agilent 1260 system with a preparative pump) was performed using a 5 micron C18 column (21.2×150 mm, Agilent). For both HPLC and LCMS, the mobile phase consisted of HPLC grade acetonitrile and water, treated with 0.1% formic acid. Spectroscopic analysis was performed on a Spectramax M5 spectrometer (Molecular Devices, Sunnyvale, Calif.) using a quartz cuvette with a 1 cm pathlength. Quantum yield was calculated according to equation (1).
Where Ø is the quantum yield, F is the integrated fluorescence intensity, f is the absorbance at the excitation wavelength and n is the refractive index of the solvent. S refers to the quantum yield standard (Rhodamine B)^25 and X refers to the unknown sample.

[3] = system: sciatic nerve or brachial plexus nerve sites (adipose, nerve, muscle tissue); assay: In vivo imaging following direct/topical administration on rodent nerve sites; design: species or system male CD-1 mice; conditions: immediately following direct administration
Description: In vivo images were acquired using a previously published, custom-built small animal fluorescence imaging system, described briefly here.^27 Fluorescent images were obtained using a Qimaging EXi Blue monochrome camera (Surrey, British Columbia, CA) with a removable Bayer mask for collection of co-registered color and fluorescence images. A Photofluor II broad band light source (89 North) was expanded onto the surgical field through a liquid light guide and used unfiltered for white light illumination. Nile Red and NR5 were excitated using a 545 t 12.5 nm bandpass filter, while fluorescence emission images were collected with a 605±35 nm bandpass filter. Oxazine 4 (Exciton, West Chester, Ohio) was used for nerve and adipose co-staining and ratiometic imaging studies. Oxazine 4 was excited using a 620±30 nm bandpass filter, while fluorescence emission images were collected through a 700±37.5 nm bandpass filter. Approval for the use of animals in the study was obtained from the Institutional Animal Care and Use Committee (IACUC) at Oregon Health and Science University (OHSU). In vivo staining studies were carried out on male CD-1 mice using an optimized direct/topical administration protocol.^2 Staining was performed concurrently on no more than two nerve sites (sciatic nerve or brachial plexus) per mouse. Nile Red and all Nile Red derivatives were formulated in a previously published co-solvent formulation (10% DMSO, 5% Kolliphor, 63.75% serum and 21.25% PBS^14) at a final concentration of 100 μM. Each formulated fluorophore was incubated for 5 minutes on the nerve site (n=4 nerve sites/fluorophore), followed by 9 short flushes with PBS. The nerve site was then incubated with blank co-solvent not containing fluorophore for 5 minutes, followed again by 9 short flushes with PBS.

[4] = system: nerve, adipose and muscle tissue at nerve sites; assay: In vivo co-staining with Oxazine 4, ratiometric imaging and ROC curve analysis; design: species or system male CD-1 mice; conditions: 30 min after staining compared to immediately following staining
Description: In vivo images were acquired using a previously published, custom-built small animal fluorescence imaging system, described briefly here.^27 Fluorescent images were obtained using a Qimaging EXi Blue monochrome camera (Surrey, British Columbia, CA) with a removable Bayer mask for collection of co-registered color and fluorescence images. A Photofluor II broad band light source (89 North) was expanded onto the surgical field through a liquid light guide and used unfiltered for white light illumination. Nile Red and NR5 were excitated using a 545 t 12.5 nm bandpass filter, while fluorescence emission images were collected with a 605±35 nm bandpass filter. Oxazine 4 (Exciton, West Chester, Ohio) was used for nerve and adipose co-staining and ratiometic imaging studies. Oxazine 4 was excited using a 620±30 nm bandpass filter, while fluorescence emission images were collected through a 700±37.5 nm bandpass filter. Approval for the use of animals in the study was obtained from the Institutional Animal Care and Use Committee (IACUC) at Oregon Health and Science University (OHSU). In vivo staining studies were carried out on male CD-1 mice using an optimized direct/topical administration protocol.^2 Staining was performed concurrently on no more than two nerve sites (sciatic nerve or brachial plexus) per mouse. Nile Red and all Nile Red derivatives were formulated in a previously published co-solvent formulation (10% DMSO, 5% Kolliphor, 63.75% serum and 21.25% PBS^14) at a final concentration of 100 μM. Each formulated fluorophore was incubated for 5 minutes on the nerve site (n=4 nerve sites/fluorophore), followed by 9 short flushes with PBS. The nerve site was then incubated with blank co-solvent not containing fluorophore for 5 minutes, followed again by 9 short flushes with PBS. In vivo co-staining was completed with (1) Nile Red and Oxazine 4 as well as (2) NR5 and Oxazine 4. For these studies, co-solvent formulated Oxazine 4 ([…]) was incubated on the nerve site for 5 minutes followed by 9 short flushes with PBS. The co-solvent formulated Nile Red or NR5 (100 μM) was then incubated on the nerve site for 5 minutes and also followed by 9 short flushes with PBS. Co-registered (1) Nile Red and Oxazine 4 or (2) NR5 and Oxazine 4 images were collected from n=4 nerve sites per groups (1) and (2). Ratiometric images were calculated and quantified using region of interest analysis on the white light images to identify the nerve, adipose and muscle tissue types. Due to the known cross talk of Oxazine 4 into the Nile Red channel,^2 the Oxazine 4 image was subtracted from the Nile Red or NR5 image resulting in an image of only adipose. The ratiometric images were then calculated as the Oxazine 4 image minus the corrected Nile Red or NR5 image divided by the corrected Nile Red or NR5 image. Receiver Operator Characteristic (ROC) curve analysis was performed to assess differences between the ratiometric images, where the area under the curve (AUC) was used as the metric to differentiate between groups (1) and (2) using custom written MatLab code.^28

[5] = U2OS, fixed and washed prior to imaging

Row | Structure (SMILES) | fluorescence intensity in fixed cells ([1]; 5 min) | fluorescence intensity in live cells without washing ([1]; 5 min) | structures observed in live cells without washing ([1]; 5 min) | Max Abs [2] [nm] | Max Em [2] [nm] | Stokes Shift [2] [nm] | QY (quantum yield) [2] | adipose to muscle ratio [3] | adipose to nerve ratio [3] | exposure time in cells stained live, then fixed ([1]; U2OS, 5 min, fixed and washed prior to imaging) | staining pattern in cells stained live, then fixed [1, 5] | ROC AUC of nerve-to-muscle contrast, change [4]
1 | CCN(CC)c1ccc2nc3c4ccc(-c5ccc(N)cc5)cc4c(=O)cc-3oc2c1 [NR1] | brighter in vitro fluorescence than NR12 | brighter than other Nile Red derivatives with higher quantum yields such as NR12 and NR6 | Prominent lipid droplet like structures | 555 | 635 | 80 | 0.08 | lower than Nile Red, adipose to muscle contrast was similar | increased contrast over control autofluorescence with similar adipose to nerve contrast | – | – | –
2 | CCN(CC)c1ccc2nc3c4cc(C#Cc5ccc(C=O)c(S(C)(=O)=O)c5)ccc4c(=O)cc-3oc2c1 [NR6, 4-((9-(diethylamino)-5-oxo-5H-benzo[a]phenoxazin-2-yl)ethynyl)-2-(methylsulfonyl)benzaldehyde] | – | – | – | 570 | 640 | 70 | 0.45 | – | increased contrast over control autofluorescence with similar adipose to nerve contrast | less than 10 sec | more cytoplasmic structures were stained | –
3 | CCN(CC)c1ccc2nc3c4cc(C#Cc5cccc(N)c5)ccc4c(=O)cc-3oc2c1 [NR7, 2-((3-aminophenyl)ethynyl)-9-(diethylamino)-5H-benzo[a]phenoxazin-5-one] | – | – | – | 565 | 640 | 75 | 0.14 | – | – | – | more cytoplasmic structures were stained | –
4 | CCN(CC)c1ccc2nc3c4cc(C#Cc5cccc(C=O)c5)ccc4c(=O)cc-3oc2c1 [NR8, 3-((9-(diethylamino)-5-oxo-5H-benzo[a]phenoxazin-2-yl)ethynyl)benzaldehyde] | bright | brightest of the synthesized derivatives | – | 565 | 640 | 75 | 0.48 | – | – | – | – | –
5 | CCN(CC)c1ccc2nc3c4cc(C#Cc5cc(C=O)ccc5OC)ccc4c(=O)cc-3oc2c1 [NR9, 3-((9-(diethylamino)-5-oxo-5H-benzo[a]phenoxazin-2-yl)ethynyl)-4-methoxybenzaldehyde] | – | – | Prominent lipid droplet like structures | 565 | 640 | 75 | 0.48 | – | – | – | – | –
6 | CCN(CC)c1ccc2nc3c4cc(-c5ccc(N)cc5)ccc4c(=O)cc-3oc2c1 [NR10, 2-(4-aminophenyl)-9-(diethylamino)-5H-benzo[a]phenoxazin-5-one] | – | – | – | 555 | 635 | 80 | 0.04 | lower than Nile Red, adipose to muscle contrast was similar | increased contrast over control autofluorescence with similar adipose to nerve contrast | – | more cytoplasmic structures were stained | –
7 | CC/N=c1/cc2oc3cc(NCC)c(C)cc3nc-2cc1C [Oxazine 4, reference compound] | – | – | – | – | – | – | – | – | – | – | – | improved values
